According to ChEMBL document CHEMBL1201862, “PubChem BioAssay data set” (2004):
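Cells were grown in 96-well plates and exposed to each compound for 48 hours at five concentrations; endpoints were interpolated linearly between bracketing concentrations, or set to the highest concentration if not reached. GI50 marks 50% less growth.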 The source made the active and inactive calls. Rule as the data show it: active = GI50 up to about 1.1 µM and inactive = higher.

Legend:
Experiment in all cases: NCI tumour cell line growth inhibition, 48 h
786-0 = system: 786-0
DU-145 = system: DU-145
EKVX = system: EKVX
HCT-15 = system: HCT-15
HOP-62 = system: HOP-62
IGROV-1 = system: IGROV-1
LOX IMVI = system: LOX IMVI
MCF7 = system: MCF7
Malme-3M = system: Malme-3M
NCI-H23 = system: NCI-H23
NCI/ADR-RES = system: NCI/ADR-RES
OVCAR-3 = system: OVCAR-3
OVCAR-5 = system: OVCAR-5
OVCAR-8 = system: OVCAR-8
RPMI-8226 = system: RPMI-8226
RXF 393 = system: RXF 393
SK-MEL-28 = system: SK-MEL-28
SW-620 = system: SW-620
UACC-257 = system: UACC-257
UO-31 = system: UO-31

Row | SMILES | GI50 (786-0) | GI50 (DU-145) | GI50 (EKVX) | GI50 (HCT-15) | GI50 (HOP-62) | GI50 (IGROV-1) | GI50 (LOX IMVI) | GI50 (MCF7) | GI50 (Malme-3M) | GI50 (NCI-H23) | GI50 (NCI/ADR-RES) | GI50 (OVCAR-3) | GI50 (OVCAR-5) | GI50 (OVCAR-8) | GI50 (RPMI-8226) | GI50 (RXF 393) | GI50 (SK-MEL-28) | GI50 (SW-620) | GI50 (UACC-257) | GI50 (UO-31)
1 | Cc1cccc(CP(Cc2cccc(C)c2)CC2(Cp3c4ccccc4c4ccccc43)COC2)c1 | 1.53 µM (inactive) | 4.71 µM (inactive) | 14.1 µM (inactive) | 31 µM | 66.7 µM (inactive) | 2.3 µM (inactive) | 1.42 µM (inactive) | 3.15 µM (inactive) | 5.13 µM (inactive) | 11.5 µM (inactive) | 53.7 µM (inactive) | 8.43 µM (inactive) | > 100 µM (inactive) | 1.78 µM (inactive) | 1.02 µM (active) | > 20.3 µM (inactive) | 13 µM (inactive) | 10.3 µM (inactive) | 8.97 µM (inactive) | 16.3 µM (inactive)
2 | COc1ccc(C(SC2C(O)C(CO)OC2n2ccc(=O)[nH]c2=O)(c2ccccc2)c2ccc(OC)cc2)cc1 (stereo not given) | 16.3 µM (inactive) | 18.4 µM (inactive) | 17.1 µM (inactive) | 15.5 µM | 17.9 µM (inactive) | 17.7 µM (inactive) | 16.9 µM (inactive) | 17.1 µM (inactive) | 20.7 µM (inactive) | 17.7 µM (inactive) | 18.9 µM (inactive) | 17.6 µM (inactive) | 18.4 µM (inactive) | 19.1 µM (inactive) | 32.8 µM (inactive) | 18.1 µM (inactive) | 21.8 µM (inactive) | 22.2 µM (inactive) | 16.1 µM (inactive) | 16.6 µM (inactive)
3 | O=C(CSc1nc2ccccc2c(=O)n1-c1ccccc1)N/N=C1\C(=O)Nc2ccc(Br)cc21 | 1.95 µM (inactive) | 2.13 µM (inactive) | 2.74 µM (inactive) | 4.39 µM | 2.59 µM (inactive) | 2.14 µM (inactive) | 3.33 µM (inactive) | 3.49 µM (inactive) | 2.26 µM (inactive) | 3.42 µM (inactive) | 2.99 µM (inactive) | 3.1 µM (inactive) | 2.92 µM (inactive) | 1.85 µM (inactive) | 2.72 µM (inactive) | 2.62 µM (inactive) | 3.35 µM (inactive) | 3.37 µM (inactive) | 5.94 µM (inactive) | 2.28 µM (inactive)
4 | Cc1ccc(NC(=O)c2cccc(OP(=O)(O)Nc3ccc(C)cc3)c2)cc1 | > 100 µM (inactive) | > 100 µM (inactive) | > 100 µM (inactive) | > 100 µM | > 100 µM (inactive) | > 100 µM (inactive) | > 100 µM (inactive) | > 100 µM (inactive) | > 100 µM (inactive) | > 100 µM (inactive) | > 100 µM (inactive) | > 100 µM (inactive) | > 100 µM (inactive) | > 100 µM (inactive) | > 100 µM (inactive) | > 100 µM (inactive) | > 100 µM (inactive) | > 100 µM (inactive) | > 100 µM (inactive) | 88.1 µM (inactive)
